Target: T1, human dopamine D1 receptor (Homo sapiens, UniProt P21728)
T1 construct: expressed in transfected cells; host or cells: CHO cells
Test: Confocal imaging of fluorescent ligand binding to a mixed population cell line expressing the human dopamine D1 receptor
Assay type: cell-based
Settings: ligand 10 nM; human D1-receptor expressing CHO mixed population before antibiotic resistance selection and prior to FACS sorting; confocal microscopy, FIG. 3
Experimental: In FIG. 3 is shown a confocal microscope image of N-{4-aza-3,7-dioxo-7-[4-(8-methoxy-3-methyl-2,3,4,5-tetrahydro-1H-3-benzazepine-1-yl)phenylamino]heptyl}-6-{2-[4-(2-(4,4-difluoro-4,4a-dihydro-5-(thiophen-2-yl)-4-bora-3a,4a-diaza-s-indacene-3-yl)vinyl) ligand (10 nM) binding to human dopamine D1-receptor expressing CHO “cell line” before antibiotic resistance selection and prior to FACS™ sorting. Red images (light grey) show cells binding the fluorescent D1-receptor antagonist and the blue images (dark grey) show the Hoechst staining of the cellular nuclei. It is clear that only about 20% of the cells are expressing the human dopamine D1 receptor.
A mixed population cell line expressing the human dopamine D1 receptor was screened with novel fluorescent dopamine D1 receptor antagonist N-{4-aza-3,7-dioxo-7-[4-(8-methoxy-3-methyl-2,3,4,5-tetrahydro-1H-3-benzazepine-1-yl)phenylamino]heptyl}-6-{2-[4-(2-(4,4-difluoro-4,4a-dihydro-5-(thiophen-2-yl)-4-bora-3a,4a-diaza-s-indacene-3-yl)vinyl), prepared as in Example 1. […] Using FACS cell sorting, these cells are sorted and separated into populations of cells expressing low, medium or high levels of the dopamine D1 receptor. […] A cell sorter such as the Beckman-Coulter Altra can then be used to put individual cells into single wells of a 96 well plate.

T1 sequence (P21728 whole entry): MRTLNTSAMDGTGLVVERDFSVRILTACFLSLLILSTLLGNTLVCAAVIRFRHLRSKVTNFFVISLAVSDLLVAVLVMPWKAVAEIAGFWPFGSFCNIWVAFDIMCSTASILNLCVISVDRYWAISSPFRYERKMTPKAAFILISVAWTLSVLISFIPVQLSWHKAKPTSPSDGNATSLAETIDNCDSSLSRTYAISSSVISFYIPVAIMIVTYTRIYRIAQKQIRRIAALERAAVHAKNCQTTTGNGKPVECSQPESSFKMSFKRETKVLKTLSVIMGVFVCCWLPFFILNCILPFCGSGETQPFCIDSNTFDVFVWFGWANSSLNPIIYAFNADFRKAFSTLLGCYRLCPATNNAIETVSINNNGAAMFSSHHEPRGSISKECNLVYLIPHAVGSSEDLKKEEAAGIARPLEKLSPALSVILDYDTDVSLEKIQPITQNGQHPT

cells that label with the fluorescent D1-receptor antagonist: about 20%
SMILES: CN1CCc2ccc(O)cc2C(c2ccc(NC(=O)CCNC(=O)CCNC(=O)CCCCCNC(=O)COc3ccc(/C=C/C4=[N+]5C(=Cc6ccc(-c7cccs7)n6[B-]5(F)F)C=C4)cc3)cc2)C1 (stereo not shown)
